We go through 28 compounds from patent US8829007B2 (priority 2009, dated 2014).

pEC50, pIC50: −log10 of the molar value. Like-named read-outs stand apart in the source and are kept apart here.

Assay [1] has as its system influenza A virus (A/PR/8/34). Kind of assay: microbe, parasite or virus in culture. The class given is cell-based. Particulars: read-out: IC50.
The test system of assay [2] is A/PR/8/34 influenza virus. Kind of assay: microbe, parasite or virus in culture. Type of assay: cell-based. Particulars: mean all, A/PR/8/34 influenza virus in MDCK cells, bDNA assay, read-out: EC50.
[3] abbreviates: Influenza A virus, PR/8, MDCK, mean all, A/PR/8/34 infected MDCK cells, CPE assay.
Where [4] appears, read: mean all, A/PR/8/34 infected MDCK cells, CPE assay.

As a reminder, the pIC50 is −log10 of the IC50, conventionally taken in molar units. By pEC50 is commonly meant the negative decadic logarithm of the EC50, by convention in mol/L. As to `CCS(=O)(=O)N1CCCC[C@@H]1CNc1nc(-c2c[nH]c3ncc(Cl)cc23)ncc1F` [Compound 382, (R)-2-(5-chloro-1H-pyrrolo[2,3-b]pyridin-3-yl)-5-fluoro-N-((1-(ethylsulfonyl)-piperidin-2-yl)methyl)pyrimidin-4-amine], the pIC50 in assay [1] (setting [3]) is over 5.30. For the same compound, the negative logarithm of the EC50 (pEC50) in assay [2] (Influenza A virus, PR/8, MDCK) is over 5.30.
As to `O=S(=O)(CC(F)(F)F)N1CCCC[C@@H]1CNc1nc(-c2c[nH]c3ncc(Cl)cc23)ncc1F` [Compound 383, (R)-2-(5-chloro-1H-pyrrolo[2,3-b]pyridin-3-yl)-5-fluoro-N-((1-(2,2,2-trifluoro-ethylsulfonyl)-piperidin-2-yl)methyl)pyrimidin-4-amine], the negative-log IC50 (pIC50) in assay [1] (setting [3]) is over 5.30. The pEC50 in assay [2] (Influenza A virus, PR/8, MDCK) was over 5.30.
For the compound `CS(=O)(=O)N1CCC[C@H](Nc2nc(-c3c[nH]c4ncc(Cl)cc34)ncc2F)C1` [Compound 389, (S)-2-(5-chloro-1H-pyrrolo[2,3-b]pyridin-3-yl)-5-fluoro-N-(1-(methylsulfonyl)piperidin-3-yl)pyrimidin-4-amine], the negative-log IC50 (pIC50) in assay [1] (setting [3]) is over 5.30. In addition, the pEC50 in assay [2] (Influenza A virus, PR/8, MDCK) is over 5.30.
With `CCCCS(=O)(=O)N1CCC[C@H](Nc2nc(-c3c[nH]c4ncc(Cl)cc34)ncc2F)C1` [Compound 390, (S)—N-(1-(butylsulfonyl)piperidin-3-yl)-2-(5-chloro-1H-pyrrolo[2,3-b]pyridin-3-yl)-5-fluoropyrimidin-4-amine], the pIC50 in assay [1] (setting [3]) is over 5.30. Further, the pEC50 in assay [2] (Influenza A virus, PR/8, MDCK) was over 5.30.
Consider `O=S(=O)(C1CC1)N1CCC[C@H](Nc2nc(-c3c[nH]c4ncc(Cl)cc34)ncc2F)C1` [Compound 391, (S)-2-(5-chloro-1H-pyrrolo[2,3-b]pyridin-3-yl)-N-(1-(cyclopropylsulfonyl)piperidin-3-yl)-5-fluoropyrimidin-4-amine], for which the negative-log IC50 (pIC50) in assay [1] (setting [3]) was over 5.30. In addition, the negative logarithm of the EC50 (pEC50) in assay [2] (Influenza A virus, PR/8, MDCK) is over 5.30.
For `O=S(=O)(CC1CCCC1)N1CCC[C@H](Nc2nc(-c3c[nH]c4ncc(Cl)cc34)ncc2F)C1` [Compound 392, (S)-2-(5-chloro-1H-pyrrolo[2,3-b]pyridin-3-yl)-N-(1-(cyclopentylmethylsulfonyl)piperidin-3-yl)-5-fluoropyrimidin-4-amine], the pIC50 in assay [1] (setting [3]) was over 5.30. Moreover, the pEC50 in assay [2] (Influenza A virus, PR/8, MDCK) was over 5.30.
In the case of `CCS(=O)(=O)N1CCC[C@H](Nc2nc(-c3c[nH]c4ncc(Cl)cc34)ncc2F)C1` [Compound 393, (S)-2-(5-chloro-1H-pyrrolo[2,3-b]pyridin-3-yl)-N-(1-(ethylsulfonyl)piperidin-3-yl)-5-fluoropyrimidin-4-amine], the pIC50 in assay [1] (setting [3]) is over 5.30. The negative logarithm of the EC50 (pEC50) in assay [2] (Influenza A virus, PR/8, MDCK) is over 5.30.
For `CC(C)S(=O)(=O)N1CCC[C@H](Nc2nc(-c3c[nH]c4ncc(Cl)cc34)ncc2F)C1` [Compound 394, (S)-2-(5-chloro-1H-pyrrolo[2,3-b]pyridin-3-yl)-5-fluoro-N-(1-(isopropylsulfonyl)-piperidin-3-yl)pyrimidin-4-amine], in assay [1] (setting [3]), the pIC50 was over 5.30. In addition, the negative logarithm of the EC50 (pEC50) in assay [2] (Influenza A virus, PR/8, MDCK) is over 5.30.
For `O=C(C1CCC1)N1CCC[C@H](Nc2nc(-c3c[nH]c4ncc(Cl)cc34)ncc2F)C1` [Compound 395], the pIC50 in assay [1] (setting [3]) is over 5.30. Besides, the pEC50 in assay [2] (Influenza A virus, PR/8, MDCK) was over 5.30.
As for `COCCC(=O)N1CCC[C@H](Nc2nc(-c3c[nH]c4ncc(Cl)cc34)ncc2F)C1` [Compound 396], the pIC50 in assay [1] (setting [3]) was over 5.30. For the same compound, the pEC50 in assay [2] (Influenza A virus, PR/8, MDCK) is over 5.30.
With `CN1CCC[C@H](Nc2nc(-c3c[nH]c4ncc(Cl)cc34)ncc2F)C1=O` [Compound 397], the pIC50 in assay [1] (setting [3]) is over 5.30. For the same compound, in assay [2] (Influenza A virus, PR/8, MDCK), the negative logarithm of the EC50 (pEC50) is over 5.30.
With `CS(=O)(=O)N1CC[C@H](Nc2nc(-c3c[nH]c4ncc(Cl)cc34)ncc2F)C1` [Compound 398, (S)-2-(5-chloro-1H-pyrrolo[2,3-b]pyridin-3-yl)-5-fluoro-N-(1-(methylsulfonyl)pyrrolidin-3-yl)pyrimidin-4-amine], the negative-log IC50 (pIC50) in assay [1] (setting [3]) is over 5.30. In addition, in assay [2] (Influenza A virus, PR/8, MDCK), the negative logarithm of the EC50 (pEC50) was over 5.30.
Turning to `COC1CCCCC1Nc1nc(-c2c[nH]c3ncc(Cl)cc23)ncc1F` (stereo not drawn) [Compound 412, 2-(5-chloro-1H-pyrrolo[2,3-b]pyridin-3-yl)-5-fluoro-N-(2-methoxycyclohexyl)-pyrimidin-4-amine], the pIC50 in assay [1] (setting [3]) was over 5.30. Moreover, the negative-log EC50 (pEC50) in assay [2] (Influenza A virus, PR/8, MDCK) was over 5.30.
With `NC1CCCCC1Nc1nc(-c2c[nH]c3ncc(Cl)cc23)ncc1F` (stereo not drawn) [Compound 414], in assay [1] (setting [4]), the pIC50 is over 5.30. Moreover, the negative-log EC50 (pEC50) in assay [2] was over 5.30.
For the compound `O=C1NCCC[C@@H]1Nc1nc(-c2c[nH]c3ncc(Cl)cc23)ncc1F` [Compound 416], in assay [1] (setting [3]), the pIC50 is over 5.30. For the same compound, the pEC50 in assay [2] (Influenza A virus, PR/8, MDCK) is over 5.30.
In the case of `O=C1NCCCC[C@@H]1Nc1nc(-c2c[nH]c3ncc(Cl)cc23)ncc1F` [Compound 417], the pIC50 in assay [1] (setting [3]) was over 5.30. The pEC50 in assay [2] (Influenza A virus, PR/8, MDCK) was over 5.30.
For `CCCCS(=O)(=O)N1CCCC(Nc2ccnc(-c3c[nH]c4ncc(Cl)cc34)n2)C1` (stereo not drawn) [Compound 419], the negative-log IC50 (pIC50) in assay [1] (setting [4]) was over 5.30. Also, the pEC50 in assay [2] is over 5.30.
Consider `COC(=O)N[C@H]1CCCC[C@@H]1Nc1nc(-c2c[nH]c3ncc(Cl)cc23)ncc1F` [Compound 425, Methyl N-[(1S,2S)-2-[[2-(5-chloro-1H-pyrrolo[2,3-b]pyridin-3-yl)-5-fluoro-pyrimidin-4-yl]amino]cyclohexyl]carbamate], for which the pIC50 in assay [1] (setting [3]) was over 5.30. Also, in assay [2] (Influenza A virus, PR/8, MDCK), the negative logarithm of the EC50 (pEC50) was over 5.30.
Consider `CS(=O)(=O)N[C@H]1CCCC[C@@H]1Nc1nc(-c2c[nH]c3ncc(Cl)cc23)ncc1F` [Compound 428, N-[(1S,2S)-2-[[2-(5-chloro-1H-pyrrolo[2,3-b]pyridin-3-yl)-5-fluoro-pyrimidin-4-yl]amino]cyclohexyl]methanesulfonamide], for which the negative-log IC50 (pIC50) in assay [1] (Influenza A virus, PR/8, MDCK, exemplary values in text, survival of A/PR/8/34 infected cells) is 7.52; in assay [1] (setting [3]), over 5.30. Also, in assay [2] (Influenza A virus, PR/8, MDCK), the negative-log EC50 (pEC50) is over 5.30.
As to `CC(=O)N[C@H]1CCCC[C@@H]1Nc1nc(-c2c[nH]c3ncc(Cl)cc23)ncc1F` [Compound 433, N-[(1s, 2S)-2-[[2-(5-chloro-1H-pyrrolo[2,3-b]pyridin-3-yl)-5-fluoro-pyrimidin-4-yl]amino]cyclohexyl]acetamide], the pIC50 in assay [1] (setting [3]) is over 5.30. In addition, in assay [2] (Influenza A virus, PR/8, MDCK), the pEC50 was over 5.30.
For `CC(=O)N1CCC[C@H](Nc2nc(-c3c[nH]c4ncc(Cl)cc34)ncc2F)C1` [Compound 434], the pIC50 in assay [1] (setting [3]) is over 5.30. In assay [2] (Influenza A virus, PR/8, MDCK), the pEC50 is over 5.30.
Turning to `CCC(=O)N1CCC[C@H](Nc2nc(-c3c[nH]c4ncc(Cl)cc34)ncc2F)C1` [Compound 435], the pIC50 in assay [1] (setting [3]) is over 5.30. The negative logarithm of the EC50 (pEC50) in assay [2] (Influenza A virus, PR/8, MDCK) is over 5.30.
As to `CCNC(=O)N1CCC[C@H](Nc2nc(-c3c[nH]c4ncc(Cl)cc34)ncc2F)C1` [Compound 438], in assay [1] (setting [3]), the negative-log IC50 (pIC50) is over 5.30. Besides, the negative-log EC50 (pEC50) in assay [2] (Influenza A virus, PR/8, MDCK) is over 5.30.
For the compound `CC(C)NC(=O)N1CCC[C@H](Nc2nc(-c3c[nH]c4ncc(Cl)cc34)ncc2F)C1` [Compound 439], the pIC50 in assay [1] (setting [3]) was over 5.30. Besides, the pEC50 in assay [2] (Influenza A virus, PR/8, MDCK) was over 5.30.
Consider `COC(=O)N1CCC[C@H](Nc2nc(-c3c[nH]c4ncc(Cl)cc34)ncc2F)C1` [Compound 440], for which the negative-log IC50 (pIC50) in assay [1] (setting [3]) is over 5.30. Moreover, in assay [2] (Influenza A virus, PR/8, MDCK), the negative logarithm of the EC50 (pEC50) is over 5.30.
As for `O=C(OC1CCOC1)N1CCC[C@H](Nc2nc(-c3c[nH]c4ncc(Cl)cc34)ncc2F)C1` (stereo partly drawn) [Compound 443], the pIC50 in assay [1] (setting [3]) was over 5.30. The pEC50 in assay [2] (Influenza A virus, PR/8, MDCK) is over 5.30.
On to `CC1(C(=O)N2CCC[C@H](Nc3nc(-c4c[nH]c5ncc(Cl)cc45)ncc3F)C2)COC1` [Compound 444], for which the negative logarithm of the IC50 (pIC50) in assay [1] (setting [3]) was over 5.30. In assay [2] (Influenza A virus, PR/8, MDCK), the pEC50 is over 5.30.
Consider `COC(=O)NC1CCCC(Nc2nc(-c3c[nH]c4ncc(Cl)cc34)ncc2F)C1` (stereo not drawn) [Compound 453], for which, in assay [1] (setting [4]), the negative logarithm of the IC50 (pIC50) is over 5.30. The negative-log EC50 (pEC50) in assay [2] was over 5.30.
